Experiments:
[1] = tested on: SW480 cancer cells; experiment: Cellular accumulation (ICP-MS) in SW480 cells; conditions: 50 μM, 0.5% DMF in MEM, SW480, exposure time 2 h
Description: (§1) As the coordinated p-cym and leaving groups are present in all synthesized complexes, we focused on the differently substituted 4-phenylthiazoles for estimated changes in lipophilicity.
Cellular accumulation of the compounds was studied based on a method described previously with modifications. 1.8 × 10^5 SW480 cells per well were seeded in aliquots of 1 mL of complete MEM (see above) into 12-well plates (CytoOne, tissue culture treated, Starlab) and incubated at 37°C for 24 h. Then, cells were exposed for 2 h at 37°C to 50 μM solutions of the test compounds (containing 0.5% DMF) in fresh 0.5 mL of complete MEM upon exchange of the medium. Afterward, cells were washed three times with 1 mL PBS per well, lysed with 0.4 mL sub-boiled HNO3 per well for 1 h at room temperature, and 0.3 mL of each sample was diluted with 7.7 mL Milli-Q water. Adsorption/desorption controls were prepared in the same manner in cell-free wells. Ruthenium content was quantified by ICP-MS using an ICP-quadrupole MS Agilent 7800 instrument (Agilent Technologies, Waldbronn, Germany) as described previously.

[2] = Solubility in 1% DMF/PBS
Source text: Solubility is an important factor for the application of metallodrugs. DMF was used as solubilizer to allow comparison to the respective chlorido complexes where the usage of DMSO would lead to stable DMSO adducts.
as §1

[3] = tested on: CT26 tumor; experiment: Anticancer activity in CT26 tumor-bearing BALB/c mice; format: in vivo; conditions: i.p. 50 mg/kg
Description: Figure 5 Anticancer activity of 1c and 3c in vivo. CT26-bearing BALB/c mice were treated i.p. with 50 mg/kg for five consecutive days for 2 weeks. (a) Impact on tumor growth; data are presented as mean ± SEM. […] On Day 15, most of the animals were sacrificed and tissues collected for further analyses. Of each group, 4 animals were kept to assess the impact on overall survival, which is shown in (b). Statistical significance was tested by log-rank test and Mantel–Cox post-test, ^∗p < 0.01. (c) The ruthenium levels measured by ICP-MS in the collected tissue samples of the mice, which were sacrificed 2 h after the last treatment.
(§2) CT26 cells (5 × 10^5 cells in 50-μL serum-free medium) were injected subcutaneously (s.c.) into the right flank of 8–16-week-old BALB/c mice (Envigo Laboratories, San Pietro Al Natisone, Italy). After 3 days, therapy treatment started on five consecutive days for 2 weeks. Animals were treated i.p. with 50 mg/kg 1c and 3c (all dissolved in 10% DMSO in 0.9% NaCl, 12 mice per group). The solvent control animals received 10% DMSO in 0.9% NaCl. Every day, the animals were monitored for the overall health conditions and tumor size was measured regularly by caliper measurement. Tumor volumes (mm^3) were calculated using following formula: length × width^2/2. In the overall survival arm of the experiment, mice were sacrificed by cervical dislocation in the case of a tumor length > 20 mm or tumor ulceration or a decreased body weight of ∼20%. Tumor growth and possible side effects of the treatment were evaluated by daily recording the tumor size by caliper measurement and parameters of the animal's overall health conditions. In the tissue sampling arm at the experiment, the mice were sacrificed by cervical dislocation 2 h after the last treatment. Tumors as well as organs were collected. Additionally, blood was drawn and incubated for 25 min to allow blood clotting. To isolate serum and blood pellets, the blood was centrifuged for 10 min at 17,900 g at room temperature. The supernatant characterized as serum was transferred to a new tube and centrifuged again to remove residual red blood cells. All collected samples were stored at −20°C and further processed for platinum measurements via ICP-MS.

[4] = Ruthenium levels in tissues by ICP-MS; format: in vivo; conditions: CT26-bearing mice, 2 h after last injection
Description: Tumor-specific organs and blood serum, harvested from the other animals 2 h after the last injection (Figure 5(c)), were measured for the average ruthenium content by inductively coupled plasma mass spectrometry (ICP-MS) of tissue homogenates.
as §2, with “In the overall survival arm of the experiment, mice were sacrificed by cervical dislocation in the case of a tumor length > 20 mm or tumor ulceration or a decreased body weight of ∼20%.” left out
The ruthenium concentration was determined by ICP-MS analysis. Ruthenium and rhenium standards were derived from LabKings (LabKings B.V., The Netherlands). The total ruthenium content was determined with a quadrupole-based ICP-MS instrument Agilent 7800 (Agilent Technologies, Tokyo, Japan) equipped with the Agilent SPS 4 autosampler (Agilent Technologies, Tokyo, Japan) and a MicroMist nebulizer at a sample uptake rate of approximately 0.2 mL·min^−1. […] Argon was used as plasma gas (15 L·min^−1) and as carrier gas (∼1.08 L·min^−1). The integration time was set to 0.1 s, and measurements were performed in 6 replicates with 100 sweeps. Rhenium served as internal standard for ruthenium.

[5] = tested on: CH1/PA-1 ovarian teratocarcinoma cells; experiment: MTT assay, inhibition of cancer cell growth, CH1/PA-1; conditions: read-out: 50% inhibitory concentration CH1, exposure time 96 h
Description: CH1/PA-1 ovarian teratocarcinoma cells (CH1, RRID: CVCL_4992, provided by L. R. Kelland, CRC Center for Cancer Therapeutics, Institute of Cancer Research, Sutton, UK; confirmed by STR profiling as PA-1 ovarian teratocarcinoma cells at Multiplexion, Heidelberg, Germany), SW480 colon adenocarcinoma (RRID: CVCL_0546), and A549 lung adenocarcinoma cells (NCI-H2618, RRID: CVCL_A549; both cell lines were obtained from the American Type Culture Collection (ATCC), Manassas, VA, USA) were grown as adherent cultures in 75-cm^2 culture flasks (Starlab, Hamburg, Germany) by using minimal essential medium (MEM) supplemented with 1 mM sodium pyruvate, 4 mM L-glutamine, 1% (v/v) nonessential amino acids from 100-fold stock (all purchased from Sigma-Aldrich), and 10% heat-inactivated fetal bovine serum (Serana, Pessin, Germany).
The 3-(4,5-dimethylthiazol-2-yl)-2,5-diphenyl-2H tetrazolium bromide (MTT, Acros Organics, Geel, Belgium) assay was used to detect the cytotoxicity of the compounds after 96-h incubation. For this purpose, cells were harvested from culture flasks by trypsinization, seeded in 100-μL aliquots into 96-well microculture plates (Starlab, UK) in densities of 1 × 10^3 (CH1/PA-1), 2 × 10^3 (SW480), and 3 × 10^3 (A549) cells per well and incubated for 24 h prior to exposure to the test compounds. Stock solutions of test compounds were prepared in DMF, which were then diluted in MEM (not to exceed a final content of 0.5% v/v of organic solvent in the test plates), and serial dilutions were added in aliquots of 100 μL per well. […] After incubation for 4 h, the medium/MTT mixtures were removed, and the produced formazan crystals were dissolved in 150 μL DMSO per well. Optical densities at 550 nm were measured spectrophotometrically with a ELx808 Absorbance Microplate Reader (Bio-Tek, Winooski, VT, USA) by using a reference wavelength of 690 nm to correct for unspecific absorption.

[6] = tested on: HCT116 multicellular tumor spheroids (3D); experiment: Resazurin assay, HCT116 3D multicellular tumor spheroids; conditions: read-out: IC50 3D; HCT116 3D spheroids, resazurin assay, 96 h exposure
Description: Both models were investigated by the fluorimetric resazurin assay after 96-h exposure.
HCT116 colorectal carcinoma cells (RRID:CVCL_0291 from ATCC) were cultivated in McCoy's 5A medium, supplemented with 10% heat-inactivated fetal bovine serum and 4 mM L-glutamine.
For 2D experiments, HCT116 cells were harvested from culture flasks by trypsinization, seeded in 100-μL aliquots into 96-well microculture plates (CytoOne, TC-treated, from Starlab) in densities of 2 × 10^3 cells per well, and incubated for 24 h prior to exposure to the test compounds. […] Stock solutions of test compounds were prepared in DMF, which were then diluted in McCoy's 5A-supplemented medium (not to exceed a final content of 0.5% v/v of organic solvent in the test plates), and serial dilutions were added in aliquots of 100 μL per well. […] After incubation for 4 h, fluorescence was measured with a microplate reader (Bio-Tek, SynergyHT) at a wavelength of 530 nm, additionally using a reference wavelength of 620 nm.

In the case of `Cc1ccc(C(C)C)cc1.Cn1cc[n+]([Ru-]2[c]3cc(S(C)(=O)=O)ccc3-c3csc[n+]32)c1.O=[N+]([O-])[O-]` [Compound 3c, [((3-κN)-1-Methylimidazole)(4-(4-(methylsulfonyl)phenyl)thiazolato-κN,κC2′)(η^6-p-cymene)ruthenium(II)] Nitrate], the “Cellular accumulation, fg Ru/cell” value [1] is reported as 4.6 ± 0.6 fg Ru/cell, the Solubility [2] is reported as 24.6 mM and the “Impact on overall survival” value ([3]; 4 mice per group, log-rank test) is reported as “significantly prolonged overall survival”. The “Impact on tumor volume (anticancer activity)” value ([3]; 5 times a week for two weeks, did not reach statistical significance) was “slight anticancer activity”, the “Survival of one animal” value ([3]; one animal) was 48 days and the “Ruthenium level in liver” value [4] was ~20 mg/kg. For the same compound, the “Ruthenium level in tumor” value [4] was ~1 mg/kg, the IC50 [5] was 102 ± 11 µM and the IC50 [6] was 226 ± 36 µM.
